Experimental findings from US20260248775A1, “NEW INHIBITORS OF PHOSPHATIDYLINOSITOL 3-KINASE” (INSTITUT NATIONAL DE LA SANTÉ ET DE LA RECHERCHE MÉDICALE, priority 2022, published 2026) are described below.

Bounds are passed on as bounds.

One series concerns the target PI3K-δ (Homo sapiens, UniProt O00329). Put plainly: PI3K-inhibitory activity, enzymatic HTRF assay, PI3K-δ. Type of series: biochemical. As to conditions: read-out: Class IC50 PI3K-δ.
Series [1] concerns the target PI3K-α (PI3K p110a/p65a (h)) (Homo sapiens, UniProt P42336). Put plainly: PI3K-inhibitory activity, enzymatic HTRF assay, PI3K-α. Type of series: biochemical. The note with it: 10 μM PIP2, 30 minutes at room temperature, read-out: Class IC50 PI3K-α. Here is the method:
(§1) Inhibitory activity of compounds against the Human PtdIns (4,5) P 3-kinase activity was quantified employing the enzymatic HTRF (Homogeneous Time Resolved Fluorescence) Assay.
(§2) PI3K p110a/[…] (h) is incubated in assay buffer containing 10 μM phosphatidylinositol 4,5-bisphosphate and Mg/ATP (concentration as required). The reaction is initiated by the addition of the ATP solution. After incubation for 30 minutes at room temperature, the reaction is stopped by the addition of stop solution containing EDTA and biotinylated phosphatidylinositol-3,4,5-trisphosphate. Finally, detection buffer is added, which contains europium-labelled anti-GST monoclonal antibody, GST-tagged GRP1 PH domain and streptavidin allophycocyanin. The plate is then read in time resolved fluorescence mode and the homogeneous time-resolved fluorescence (HTRF) signal is determined according to the formula HTRF=10000×(Em665 nm/Em620 nm)

In the next series the target is PI3K-γ (Homo sapiens, UniProt P48736). Briefly: PI3K-inhibitory activity, enzymatic HTRF assay, PI3K-γ. It counts as biochemical. The note with it: read-out: Class IC50 PI3K-γ. As for the experimental part: [The procedure below names another target; the source lists this target under the same test.] as §1, §2
The target in a further series is PI3K-β (Homo sapiens, UniProt P42338). Briefly: PI3K-inhibitory activity, enzymatic HTRF assay, PI3K-β. It counts as biochemical. The note with it: read-out: Class IC50 PI3K-β. As for the experimental part: [The procedure below names another target; the source lists this target under the same test.] as §1, §2
Series [2] in a line: Blood insulin concentration after repeated oral gavage in C57B16 mice. Type of series: in vivo, mouse. The note with it: 50 mg/kg oral gavage daily for 5 days, plasma on day 6, male C57B16 mice, FIG. 2. As for the experimental part: FIG. 2 illustrates the variation of insulin over time for the groups of mice treated either with a vehicle or with Compound 5 of the invention. Ordinate: insulin (ng/ml). Abscissa: time (hours).
C57B16 mice (n=3 mice per group, 3 males) aged of 8 weeks old were daily treated by either vehicle or Compound 5 (50 mg/kg) during 5 consecutive days through oral gavage. On day 6, insulin concentrations were measured at different time points before and after drug administration.
Insulin level was measured in plasma (7 μL in duplicate) using MSD u.plex (Mesoscale, ref 1526HK).

The next series deals with NZBWF1/J mice. Put plainly: Kidney lesions in lupus model, uninephrectomized NZBWF1/J mice. Type of series: in vivo, mouse. The note with it: 50 mg/kg/day orally. As for the experimental part:
FIG. 1 (A to C) illustrates the ability of Compound 5 of the invention to improve kidney lesions in NZBWF1/J mouse model. A. Urinary albumin to creatinine ratio (Ualb/Cre) (Ordinate, mg/mmol). Abscissa (From left to right): Vehicle and Compound 5 (50 mg/kg). B. Blood urea nitrogen level (BUN) (Ordinate, mmol/L). Abscissa (From left to right): Vehicle and Compound 5 (50 mg/kg). C. Glomerular lesion score of kidneys 4 weeks after uninephrectomy followed by treatment with either the vehicle or Compound 5 (n=6 mice per group). AU: Arbitrary Unit (Ordinate). Abscissa (From left to right): Vehicle and Compound 5 (50 mg/kg).
NZBWF1/J mice gradually develop immune glomerulonephritis characterized by proteinuria and kidney dysfunction starting around 25 weeks of age. The uninephrectomy model was employed and uninephrectomy was performed on 12 female mice at 24 weeks of age.
As the incidence and severity of symptoms are more pronounced in females, only females were used in this study. The mice were then randomly assigned to receive either the vehicle (n=6) or Compound 5 50 mg/kg/day orally (n=6) for a duration of 4 weeks. At the end of the treatment period, the mice were sacrificed and their kidney histology was compared to samples obtained during the uninephrectomy procedure.

A short description of series [3]: Blood glucose after repeated oral gavage in C57B16 mice. As to conditions: 50 mg/kg oral gavage daily for 5 days, measured on day 6, C57B16 mice, vs vehicle. Type of series: in vivo, mouse. As for the experimental part: C57B16 mice (n=6 mice per group, 3 males and 3 females) aged of 8 weeks old were daily treated by either vehicle or Compound 5 (50 mg/kg) during 5 consecutive days through oral gavage.
On day 6, blood glucose concentrations were measured at different time points before and after drug administration.

Chain of PI3K-β (P42338 whole entry): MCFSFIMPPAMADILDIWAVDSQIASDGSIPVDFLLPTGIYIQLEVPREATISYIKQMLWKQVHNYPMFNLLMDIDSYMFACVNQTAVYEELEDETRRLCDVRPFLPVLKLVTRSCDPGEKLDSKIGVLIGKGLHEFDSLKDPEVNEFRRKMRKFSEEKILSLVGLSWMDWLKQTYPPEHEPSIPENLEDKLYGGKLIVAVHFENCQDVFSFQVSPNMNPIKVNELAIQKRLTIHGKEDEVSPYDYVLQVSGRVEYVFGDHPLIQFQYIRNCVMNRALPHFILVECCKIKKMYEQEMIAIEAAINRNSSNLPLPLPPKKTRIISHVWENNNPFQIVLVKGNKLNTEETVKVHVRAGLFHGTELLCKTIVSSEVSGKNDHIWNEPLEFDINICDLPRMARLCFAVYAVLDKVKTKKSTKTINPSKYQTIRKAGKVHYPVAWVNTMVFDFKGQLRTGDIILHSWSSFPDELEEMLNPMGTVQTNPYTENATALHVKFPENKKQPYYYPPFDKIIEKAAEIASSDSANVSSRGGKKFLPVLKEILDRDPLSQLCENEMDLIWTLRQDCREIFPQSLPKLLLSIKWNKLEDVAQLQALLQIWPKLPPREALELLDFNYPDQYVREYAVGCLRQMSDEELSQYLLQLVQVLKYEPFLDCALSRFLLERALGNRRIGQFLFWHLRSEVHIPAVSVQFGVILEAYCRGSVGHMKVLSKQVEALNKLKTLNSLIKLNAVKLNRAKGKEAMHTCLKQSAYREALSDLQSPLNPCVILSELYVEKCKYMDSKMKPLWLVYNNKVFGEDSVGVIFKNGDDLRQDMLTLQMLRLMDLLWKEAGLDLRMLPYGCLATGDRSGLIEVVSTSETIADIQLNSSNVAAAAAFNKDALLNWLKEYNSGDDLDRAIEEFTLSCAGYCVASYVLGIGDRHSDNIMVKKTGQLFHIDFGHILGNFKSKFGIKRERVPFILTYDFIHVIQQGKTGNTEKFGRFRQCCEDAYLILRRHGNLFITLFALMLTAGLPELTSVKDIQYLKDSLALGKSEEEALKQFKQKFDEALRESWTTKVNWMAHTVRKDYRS
Chain of PI3K-β (P27986 whole entry partner): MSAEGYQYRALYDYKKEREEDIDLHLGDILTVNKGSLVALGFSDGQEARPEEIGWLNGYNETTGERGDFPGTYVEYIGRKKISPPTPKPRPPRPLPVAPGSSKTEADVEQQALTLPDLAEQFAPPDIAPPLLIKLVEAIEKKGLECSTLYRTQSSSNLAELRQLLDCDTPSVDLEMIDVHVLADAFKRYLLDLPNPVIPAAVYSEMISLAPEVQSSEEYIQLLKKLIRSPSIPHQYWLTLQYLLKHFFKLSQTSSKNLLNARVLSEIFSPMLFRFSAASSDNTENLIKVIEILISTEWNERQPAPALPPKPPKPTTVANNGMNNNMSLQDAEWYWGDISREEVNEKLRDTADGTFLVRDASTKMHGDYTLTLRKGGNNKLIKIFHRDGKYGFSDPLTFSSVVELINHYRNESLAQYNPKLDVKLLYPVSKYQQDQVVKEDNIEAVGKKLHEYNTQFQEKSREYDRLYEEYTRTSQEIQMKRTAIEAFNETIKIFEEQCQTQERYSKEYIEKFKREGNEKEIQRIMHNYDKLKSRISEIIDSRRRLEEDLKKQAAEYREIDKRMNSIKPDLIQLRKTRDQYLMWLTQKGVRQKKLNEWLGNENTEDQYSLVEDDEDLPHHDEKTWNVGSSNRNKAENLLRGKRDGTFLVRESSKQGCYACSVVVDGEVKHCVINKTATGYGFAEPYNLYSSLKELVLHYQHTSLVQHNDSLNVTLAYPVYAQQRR
Chain of PI3K-α (PI3K p110a/p65a (h)) (P42336 whole entry): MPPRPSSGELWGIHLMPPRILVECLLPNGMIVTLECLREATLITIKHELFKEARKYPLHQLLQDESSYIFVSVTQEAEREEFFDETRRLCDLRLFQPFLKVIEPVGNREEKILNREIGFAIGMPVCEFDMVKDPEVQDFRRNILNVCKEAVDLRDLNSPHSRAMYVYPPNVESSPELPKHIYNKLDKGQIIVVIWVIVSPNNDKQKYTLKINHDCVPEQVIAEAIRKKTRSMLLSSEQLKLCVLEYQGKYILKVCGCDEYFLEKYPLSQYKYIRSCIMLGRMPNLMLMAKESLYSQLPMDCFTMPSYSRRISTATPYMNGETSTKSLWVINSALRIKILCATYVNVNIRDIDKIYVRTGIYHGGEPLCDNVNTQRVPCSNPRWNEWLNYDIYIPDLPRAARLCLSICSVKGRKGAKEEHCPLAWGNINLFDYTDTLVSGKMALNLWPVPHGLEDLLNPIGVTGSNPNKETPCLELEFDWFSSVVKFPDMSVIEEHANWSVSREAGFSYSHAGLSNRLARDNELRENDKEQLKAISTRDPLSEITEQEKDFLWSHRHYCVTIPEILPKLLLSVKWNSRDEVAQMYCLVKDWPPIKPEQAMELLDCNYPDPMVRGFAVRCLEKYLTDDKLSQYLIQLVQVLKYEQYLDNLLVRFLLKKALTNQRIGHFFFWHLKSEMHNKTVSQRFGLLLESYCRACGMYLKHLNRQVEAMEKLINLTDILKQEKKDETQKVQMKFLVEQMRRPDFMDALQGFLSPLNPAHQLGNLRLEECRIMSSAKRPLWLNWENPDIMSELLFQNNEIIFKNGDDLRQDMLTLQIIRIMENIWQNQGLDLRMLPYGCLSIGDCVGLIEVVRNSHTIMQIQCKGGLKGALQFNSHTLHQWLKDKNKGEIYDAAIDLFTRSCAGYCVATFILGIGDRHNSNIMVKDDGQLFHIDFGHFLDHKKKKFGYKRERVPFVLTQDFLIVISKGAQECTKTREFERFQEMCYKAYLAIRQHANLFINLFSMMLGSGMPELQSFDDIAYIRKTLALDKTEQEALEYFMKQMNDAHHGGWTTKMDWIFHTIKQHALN
Chain of PI3K-γ (P48736 whole entry): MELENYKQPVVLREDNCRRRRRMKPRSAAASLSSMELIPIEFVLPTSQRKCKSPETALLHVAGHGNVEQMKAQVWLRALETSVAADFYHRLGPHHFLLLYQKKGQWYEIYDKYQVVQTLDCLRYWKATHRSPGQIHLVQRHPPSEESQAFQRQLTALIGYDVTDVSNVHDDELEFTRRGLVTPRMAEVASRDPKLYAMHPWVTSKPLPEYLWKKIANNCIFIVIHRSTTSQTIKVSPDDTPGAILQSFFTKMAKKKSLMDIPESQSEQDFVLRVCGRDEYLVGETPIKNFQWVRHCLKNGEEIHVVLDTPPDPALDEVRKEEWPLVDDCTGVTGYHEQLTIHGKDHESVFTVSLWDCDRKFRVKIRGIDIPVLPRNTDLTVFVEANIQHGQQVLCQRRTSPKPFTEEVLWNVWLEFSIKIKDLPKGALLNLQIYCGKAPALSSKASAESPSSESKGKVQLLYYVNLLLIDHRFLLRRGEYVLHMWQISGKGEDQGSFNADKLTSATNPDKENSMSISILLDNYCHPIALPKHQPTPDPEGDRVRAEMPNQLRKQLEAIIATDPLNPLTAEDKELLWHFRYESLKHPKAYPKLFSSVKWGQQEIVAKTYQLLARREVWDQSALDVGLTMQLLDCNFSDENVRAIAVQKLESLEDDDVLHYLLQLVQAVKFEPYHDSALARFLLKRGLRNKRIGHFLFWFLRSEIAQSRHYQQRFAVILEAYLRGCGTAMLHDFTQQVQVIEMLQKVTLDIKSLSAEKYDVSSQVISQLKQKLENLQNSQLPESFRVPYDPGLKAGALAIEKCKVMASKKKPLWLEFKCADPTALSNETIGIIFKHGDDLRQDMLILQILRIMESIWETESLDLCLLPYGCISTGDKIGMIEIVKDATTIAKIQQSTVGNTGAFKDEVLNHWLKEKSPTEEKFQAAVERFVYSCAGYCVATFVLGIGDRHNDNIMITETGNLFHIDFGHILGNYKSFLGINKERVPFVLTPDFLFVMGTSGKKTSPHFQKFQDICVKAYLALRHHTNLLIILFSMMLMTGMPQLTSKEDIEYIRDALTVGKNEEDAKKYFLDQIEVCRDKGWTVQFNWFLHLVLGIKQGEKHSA
Chain of PI3K-δ (O00329 whole entry): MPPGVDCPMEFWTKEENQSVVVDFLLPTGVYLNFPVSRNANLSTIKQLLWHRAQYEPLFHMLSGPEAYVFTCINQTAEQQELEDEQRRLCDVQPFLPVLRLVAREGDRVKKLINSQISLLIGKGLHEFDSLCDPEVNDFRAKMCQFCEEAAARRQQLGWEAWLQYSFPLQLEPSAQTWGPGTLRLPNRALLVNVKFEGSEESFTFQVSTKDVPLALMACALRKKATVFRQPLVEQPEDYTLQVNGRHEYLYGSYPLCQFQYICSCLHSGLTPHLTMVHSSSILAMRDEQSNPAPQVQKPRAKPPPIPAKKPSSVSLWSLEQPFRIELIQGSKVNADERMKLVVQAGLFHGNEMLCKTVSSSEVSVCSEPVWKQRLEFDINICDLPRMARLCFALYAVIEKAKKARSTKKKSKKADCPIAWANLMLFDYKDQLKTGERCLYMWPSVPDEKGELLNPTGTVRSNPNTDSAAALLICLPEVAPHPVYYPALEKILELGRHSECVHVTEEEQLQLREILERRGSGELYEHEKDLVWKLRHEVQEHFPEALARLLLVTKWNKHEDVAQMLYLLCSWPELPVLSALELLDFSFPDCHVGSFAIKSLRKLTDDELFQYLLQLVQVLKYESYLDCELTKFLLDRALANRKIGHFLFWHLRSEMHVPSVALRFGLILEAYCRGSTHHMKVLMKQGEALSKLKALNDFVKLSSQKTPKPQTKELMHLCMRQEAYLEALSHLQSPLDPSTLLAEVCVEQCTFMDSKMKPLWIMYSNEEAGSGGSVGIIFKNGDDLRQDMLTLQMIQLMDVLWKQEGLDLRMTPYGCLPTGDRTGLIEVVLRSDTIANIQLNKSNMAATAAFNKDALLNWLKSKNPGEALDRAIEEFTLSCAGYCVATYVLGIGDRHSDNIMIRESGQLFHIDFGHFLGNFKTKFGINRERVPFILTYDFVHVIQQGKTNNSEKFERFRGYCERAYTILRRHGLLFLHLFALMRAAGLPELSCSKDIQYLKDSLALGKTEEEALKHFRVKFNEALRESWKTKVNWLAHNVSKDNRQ
Chain of PI3K-δ (P27986 whole entry partner): as the sequence (P27986 whole entry partner) above

Turning to `Cc1nc(NC(=O)N2CC(F)(F)C[C@H]2C(N)=S)sc1-c1ccnc(C(C)(C)C(F)(F)F)c1` [Compound 1, (S)-2-carbamothioyl-4,4-difluoro-N-(4-methyl-5-(2-(1,1,1-trifluoro-2-methylpropan-2-yl)pyridin-4-yl)thiazol-2-yl)pyrrolidine-1-carboxamide], the IC50 on PI3K-δ was 200 to 500 nM; in series [1] it was 200 to 500 nM; on PI3K-γ, > 1000 nM; at PI3K-β, > 1000 nM.
In the case of `Cc1nc(NC(=O)N2C[C@H](F)C[C@H]2C(N)=S)sc1-c1ccnc(C(C)(C)C(F)(F)F)c1` [Compound 2, (2S,4R)-2-carbamothioyl-4-fluoro-N-(4-methyl-5-(2-(1,1,1-trifluoro-2-methylpropan-2-yl)pyridin-4-yl)thiazol-2-yl)pyrrolidine-1-carboxamide], the IC50 was 200 to 500 nM at PI3K-δ, 50 to 200 nM in series [1], 200 to 500 nM on PI3K-γ and > 1000 nM on PI3K-β.
For `Cc1nc(NC(=O)N2C[C@@H](F)C[C@H]2C(N)=S)sc1-c1ccnc(C(C)(C)C(F)(F)F)c1` [Compound 3, (2S,4S)-2-carbamothioyl-4-fluoro-N-(4-methyl-5-(2-(1,1,1-trifluoro-2-methylpropan-2-yl)pyridin-4-yl)thiazol-2-yl)pyrrolidine-1-carboxamide], the IC50 at PI3K-δ was > 1000 nM; in series [1], 50 to 200 nM; at PI3K-γ it was 200 to 500 nM; at PI3K-β it was > 1000 nM.
With `Cc1nc(NC(=O)N2CC3(C[C@H]2C(N)=S)CC3(F)F)sc1-c1ccnc(C(C)(C)C(F)(F)F)c1` (stereo partly drawn) [Compound 4, (S)-6-carbamothioyl-N-(4-methyl-5-(2-(1,1,1-trifluoro-2-methylpropan-2-yl)pyridin-4-yl)thiazol-2-yl)-1,1-difluoro-5-azaspiro[2,4]heptane-5-carboxamide], the IC50 (at PI3K-δ; in series [1]; at PI3K-γ; at PI3K-β) was > 1000 nM throughout.
`Cc1nc(NC(=O)N2CCC[C@H]2C(N)=S)sc1-c1ccnc(C(C)(C)C(F)(F)F)c1` [Compound 5, (S)-2-carbamothioyl-N-(4-methyl-5-(2-(1,1,1-trifluoro-2-methylpropan-2-yl)pyridin-4-yl)thiazol-2-yl)pyrrolidine-1-carboxamide]: the 50% inhibitory concentration (IC50) is 200 to 500 nM on PI3K-δ, ≤ 50 nM in series [1], 200 to 500 nM on PI3K-γ and > 1000 nM on PI3K-β. For the same molecule, in series [2], the blood insulin concentration entry is “no increase”. Further, the “glomerular lesions (glomerular lesion score)” value in the series with NZBWF1/J mice (4 weeks after uninephrectomy, histology, FIG. 1C) is on record as “remained stable”. In the series on NZBWF1/J mice (4 weeks, female uninephrectomized NZBWF1/J mice), the kidney-to-body weight ratio result is “notably decreased”. For the same molecule, the “albuminuria (urinary albumin to creatinine ratio)” value with NZBWF1/J mice (4 weeks, female uninephrectomized NZBWF1/J mice, vs vehicle, FIG. 1A) is “significant reductions”. For the same molecule, the “blood urea nitrogen levels” value with NZBWF1/J mice (4 weeks, female uninephrectomized NZBWF1/J mice, vs vehicle, FIG. 1B) is recorded as “significant reductions”. In addition, in series [3], the blood glucose result was “modest increase”.
For `Cc1nc(NC(=O)N2CCC[C@@]2(C)C(N)=S)sc1-c1ccnc(C(C)(C)C(F)(F)F)c1` [Compound 6, (S)-2-carbamothioyl-2-methyl-N-(4-methyl-5-(2-(1,1,1-trifluoro-2-methylpropan-2-yl)pyridin-4-yl)thiazol-2-yl)pyrrolidine-1-carboxamide], the IC50 (on PI3K-δ; in series [1]; on PI3K-γ; at PI3K-β) was > 1000 nM in each case.
Turning to `CO[C@@H]1C[C@@H](C(N)=S)N(C(=O)Nc2nc(C)c(-c3ccnc(C(C)(C)C(F)(F)F)c3)s2)C1` [Compound 7, (2S,4R)-2-carbamothioyl-4-methoxy-N-(4-methyl-5-(2-(1,1,1-trifluoro-2-methylpropan-2-yl)pyridin-4-yl)thiazol-2-yl)pyrrolidine-1-carboxamide], the IC50 at PI3K-δ was 500 to 1000 nM; in series [1], 50 to 200 nM; on PI3K-γ, 200 to 500 nM; at PI3K-β, > 1000 nM.
Regarding `CO[C@H]1C[C@@H](C(N)=S)N(C(=O)Nc2nc(C)c(-c3ccnc(C(C)(C)C(F)(F)F)c3)s2)C1` [Compound 8, (2S,4S)-2-carbamothioyl-4-methoxy-N-(4-methyl-5-(2-(1,1,1-trifluoro-2-methylpropan-2-yl)pyridin-4-yl)thiazol-2-yl)pyrrolidine-1-carboxamide], the IC50 on PI3K-δ was 500 to 1000 nM; in series [1] it was 50 to 200 nM; at PI3K-γ, 200 to 500 nM; on PI3K-β it was > 1000 nM.
As for `Cc1nc(NC(=O)N2[C@H](C)CC[C@H]2C(N)=S)sc1-c1ccnc(C(C)(C)C(F)(F)F)c1` [Compound 9, (2S,5R)-2-carbamothioyl-5-methyl-N-(4-methyl-5-(2-(1,1,1-trifluoro-2-methylpropan-2-yl)pyridin-4-yl)thiazol-2-yl)pyrrolidine-1-carboxamide], the IC50 at PI3K-δ was > 1000 nM; in series [1] it was 200 to 500 nM; at PI3K-γ it was > 1000 nM; on PI3K-β, > 1000 nM.
Turning to `Cc1nc(NC(=O)N2[C@@H](C)CC[C@H]2C(N)=S)sc1-c1ccnc(C(C)(C)C(F)(F)F)c1` [Compound 10, (2S,5S)-2-carbamothioyl-5-methyl-N-(4-methyl-5-(2-(1,1,1-trifluoro-2-methylpropan-2-yl)pyridin-4-yl)thiazol-2-yl)pyrrolidine-1-carboxamide], the IC50 (at PI3K-δ; in series [1]; at PI3K-γ; on PI3K-β) was > 1000 nM each time.
Regarding `Cc1nc(NC(=O)N2C[C@@H](C(F)(F)F)C[C@H]2C(N)=S)sc1-c1ccnc(C(C)(C)C(F)(F)F)c1` [Compound 12, (2S,4S)-2-carbamothioyl-N-(4-methyl-5-(2-(1,1,1-trifluoro-2-methylpropan-2-yl)pyridin-4-yl)thiazol-2-yl)-4-(trifluoromethyl)pyrrolidine-1-carboxamide], the IC50 is > 1000 nM on PI3K-δ, 500 to 1000 nM in series [1], > 1000 nM on PI3K-γ and > 1000 nM at PI3K-β.
Consider `Cc1nc(NC(=O)N2C[C@H](O)C[C@H]2C(N)=S)sc1-c1ccnc(C(C)(C)C(F)(F)F)c1` [Compound 13, (2S,4R)-2-carbamothioyl-4-hydroxy-N-(4-methyl-5-(2-(1,1,1-trifluoro-2-methylpropan-2-yl)pyridin-4-yl)thiazol-2-yl)pyrrolidine-1-carboxamide], for which the concentration for half-maximal inhibition (IC50) was 200 to 500 nM on PI3K-δ, ≤ 50 nM in series [1], 200 to 500 nM at PI3K-γ and > 1000 nM on PI3K-β.
In the case of `Cc1nc(NC(=O)N2CC[C@H](O)[C@H]2C(N)=S)sc1-c1ccnc(C(C)(C)C(F)(F)F)c1` [Compound 14, (2S,3S)-2-carbamothioyl-3-hydroxy-N-(4-methyl-5-(2-(1,1,1-trifluoro-2-methylpropan-2-yl)pyridin-4-yl)thiazol-2-yl)pyrrolidine-1-carboxamide], the IC50 at PI3K-δ is 200 to 500 nM; in series [1] it was ≤ 50 nM; at PI3K-γ it was 200 to 500 nM; on PI3K-β, > 1000 nM.
